From patent publication US20100210617A1, “Aryl-Alkylamines And Heteroaryl-Alkylamines As Protein Kinase Inhibitors” (ASTEX THERAPEUTICS LIMITED, priority 2005, published 2010)
pIC50: −log10 of the molar value. Where a name gives a salt, the structure may show the parent alone.

Tests used:
[1] = biological target: T1, protein kinase B (PKB), fusion protein PKB-PIF (Homo sapiens, UniProt P31751); assay: Measurement of PKB kinase inhibitory activity (IC50); type: biochemical; details: 0.6 nM enzyme, 30 μM ATP/γ33P-ATP, 25 μM AKTide-2T substrate, 20 minutes; read-out: IC50, concentration required to inhibit 50% of the PKB activity
T1 construct: made in house
Procedure: The inhibition of protein kinase B (PKB) activity by compounds can be determined essentially as described by Andjelkovic et al. (Mol. Cell. Biol. 19, 5061-5072 (1999)) but using a fusion protein described as PKB-PIF and described in full by Yang et al (Nature Structural Biology 9, 940-944 (2002)). […] A final concentration of 0.6 nM enzyme is used in a buffer that includes 20 mM MOPS pH 7.2, 30 μM ATP/γ^33P-ATP and 25 μM substrate. Compounds are added in DMSO solution to a final DMSO concentration of 2.5%. The reaction is allowed to proceed for 20 minutes before addition of excess orthophosphoric acid to quench activity. The reaction mixture is transferred to a phosphocellulose filter plate where the peptide binds and the unused ATP is washed away. After washing, scintillant is added and the incorporated activity measured by scintillation counting.
The % inhibition of the PKB activity is calculated and plotted in order to determine the concentration of test compound required to inhibit 50% of the PKB activity (IC50).

[2] = biological target: T2, PKA catalytic domain (Homo sapiens, UniProt P17612); assay: Measurement of PKA kinase inhibitory activity (IC50); type: biochemical; details: 1 nM enzyme, 40 μM ATP/γ33P-ATP, 5 μM peptide substrate […], 20 minutes; read-out: IC50, concentration required to inhibit 50% of the PKA activity
T2 construct: using the PKA catalytic domain from Upstate Biotechnology (#14-440); purchased Upstate Biotechnology 14-440
Procedure: A final concentration of 1 nM enzyme is used in a buffer that includes 20 mM MOPS pH 7.2, 40 μM ATP/γ^33P-ATP and 5 μM substrate. Compounds are added in dimethylsulphoxide (DMSO) solution to a final DMSO concentration of 2.5%. The reaction is allowed to proceed for 20 minutes before addition of excess orthophosphoric acid to quench activity. Unincorporated γ^33P-ATP is then separated from phosphorylated proteins on a Millipore MAPH filter plate. The plates are washed, scintillant is added and the plates are then subjected to counting on a Packard Topcount.

T1 sequence (P31751 with tags, fused parts or gaps limits assumed): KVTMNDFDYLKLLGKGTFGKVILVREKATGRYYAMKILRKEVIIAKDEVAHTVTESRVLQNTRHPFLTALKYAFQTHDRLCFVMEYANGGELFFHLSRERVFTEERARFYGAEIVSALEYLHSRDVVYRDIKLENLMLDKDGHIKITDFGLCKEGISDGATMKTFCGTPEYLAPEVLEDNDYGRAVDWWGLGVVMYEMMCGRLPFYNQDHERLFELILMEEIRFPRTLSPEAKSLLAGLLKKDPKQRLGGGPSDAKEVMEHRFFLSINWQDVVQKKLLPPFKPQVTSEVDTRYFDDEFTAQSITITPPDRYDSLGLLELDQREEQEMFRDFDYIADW

SMILES | pIC50 [1] | pIC50 [2]
COc1cccc(OCC2(c3ccc(-c4c[nH]nc4C)cc3)CCNCC2)c1 [Example 77, 4-(3-Methoxy-phenoxymethyl)-4-[4-(3-methyl-1H-pyrazol-4-yl)-phenyl]-piperidine] | > 6.00 | > 6.00
Clc1ccc(C2(c3ccc(-c4cn[nH]c4)cc3)CCNC2)cc1 (stereo not shown) [Example 81, 4-{4-[3-(4-Chloro-phenyl)-pyrrolidin-3-yl]-phenyl}-1H-pyrazole formate] | > 6.00 | > 6.00
COc1ccc(C2(c3ccc(-c4cn[nH]c4)cc3)CNC2)cc1 [Example 82, 4-{-4-[3-(4-Methoxy-phenyl)-azetidin-3-yl]-phenyl}-1H-pyrazole formate] | > 6.00 | > 6.00
COc1ccc(-c2cccc(C3(c4ccc(-c5cn[nH]c5)cc4)CCNCC3)c2)cc1 [Example 85, 4-(4′-Methoxy-biphenyl-3-yl)-4-[4-(1H-pyrazol-4-yl)-phenyl]-piperidine dihydrochloride] | > 6.00 | > 7.00
CCc1[nH]ncc1-c1ccc(C2(c3ccc(Cl)cc3)CCNCC2)cc1 [Example 87, 4-(4-Chloro-phenyl)-4-[4-(5-ethyl-1H-pyrazol-4-yl)-phenyl]-piperidine] | > 6.00 | > 6.00
Clc1ccc(C2(c3ccc(-c4cn[nH]c4C4CC4)cc3)CCNCC2)cc1 [Example 88, 4-(4-Chloro-phenyl)-4-[4-(5-cyclopropyl-1H-pyrazol-4-yl)-phenyl]-piperidine] | > 7.00 | > 6.00
CN(C)c1cccc(C2(c3ccc(-c4cn[nH]c4)cc3)CCNCC2)c1 [Example 89, Dimethyl-(3-{4-[4-(1H-pyrazol-4-yl)-phenyl]-piperidin-4-yl}-phenyl)-amine] | > 6.00 | > 6.00
COc1ccc(C2(c3ccc(-c4cn[nH]c4)cc3)CCNCC2)cn1 [Example 90, 4-(2-Methoxy-5-pyridin-yl)-4-[4-(1H-pyrazol-4-yl)-phenyl]-piperidine] | > 6.00 | > 7.00
NCC(O)(c1ccc(Cl)cc1)c1ccc(-c2cn[nH]c2)cn1 (stereo not shown) [Example 91, 2-Amino-1-(4-chloro-phenyl)-[5-(1H-pyrazol-4-yl)-pyridin-2-yl]-ethanol hydrochloride] | > 6.00 | > 7.00
Cc1n[nH]cc1-c1ccc(C2(COc3cccc(-c4nc5ccccc5o4)c3)CCNCC2)cc1 [Example 93, 2-(3-{4-[4-(3-Methyl-1H-pyrazol-4-yl)-phenyl]-piperidin-4-ylmethoxy}-phenyl)-benzooxazole] | > 7.00 | –
NCCC(O)(c1ccc(Cl)cc1)c1ccc(-c2cn[nH]c2)cc1F (stereo not shown) [Example 94, 3-Amino-1-(4-chlorophenyl)-1-[2-fluoro-4-(1H-pyrazol-4-yl)-phenyl]-propan-1-ol-acetic acid salt] | > 7.00 | > 7.00
NCCC(O)(c1ccc(-c2cn[nH]c2)cc1)c1ccc(Cl)c(F)c1 (stereo not shown) [Example 95, 3-Amino-1-(4-chloro-3-fluoro-phenyl)-1-[4-(1H-pyrazol-4-yl)-phenyl]-propan-1-ol] | > 7.00 | > 7.00
NCCC(O)(c1ccc(-c2cn[nH]c2)cc1)c1ccc(Cl)c(Cl)c1 (stereo not shown) [Example 96, 3-Amino-1-(3,4,-dichlorophenyl)-1-[4-(1H-pyrazol-4-yl)-phenyl]-propan-1-ol] | > 7.00 | > 7.00
NCC[C@@](O)(c1ccc(Cl)cc1)c1ccc(-c2cn[nH]c2)cc1 [Example 99A, (S)-3-Amino-1-(4-chloro-phenyl)-1-[4-(1H-pyrazol-4-yl)-phenyl]-propan-1-ol] | > 7.00 | > 7.00
NCC[C@](O)(c1ccc(Cl)cc1)c1ccc(-c2cn[nH]c2)cc1 [Example 99B, (R)-3-Amino-1-(4-chloro-phenyl)-1-[4-(1H-pyrazol-4-yl)-phenyl]-propan-1-ol] | > 7.00 | –

Continued, values first:

pIC50 [1] | pIC50 [2] | SMILES
> 7.00 | > 7.00 | NCCC(O)(c1ccc(Cl)cc1)c1ccc(-c2cn[nH]c2)cc1 (racemic) [Example 92, 3-Amino-1-(4-chloro-phenyl)-1-[4-(1H-pyrazol-4-yl)-phenyl]-propan-1-ol]
> 7.00 | > 7.00 | NCCC(c1ccc(-c2cn[nH]c2)cc1)c1ccc(Cl)c(F)c1 (stereo not shown) [Example 1, 3-(4-Chloro-3-fluoro-phenyl)-3-[4-(1H-pyrazol-4-yl)-phenyl]-propylamine]
> 7.00 | – | NCC[C@H](c1ccc(-c2cn[nH]c2)cc1)c1ccc(Cl)c(Cl)c1 [Example 2, (R)-3-(3,4-Dichloro-phenyl)-3-[4-(1H-pyrazol-4-yl)-phenyl]-propylamine]
> 7.00 | > 7.00 | Cc1n[nH]cc1-c1ccc(C(O)(CN)c2ccc(Cl)cc2)cc1 (stereo not shown) [Example 79, 2-Amino-1-(4-chloro-phenyl)-1-[4-(3-methyl-1H-pyrazol-4-yl)-phenyl]-ethanol]
> 7.00 | > 7.00 | CCc1n[nH]cc1-c1ccc(C(O)(CN)c2ccc(Cl)cc2)cc1 (stereo not shown) [Example 80, 2-Amino-1-(4-chloro-phenyl)-1-[4-(3-ethyl-1H-pyrazol-4-yl)-phenyl]-ethanol]
> 7.00 | > 7.00 | c1cc(C2(c3ccc4c(c3)OCCO4)CCNCC2)ccc1-c1cn[nH]c1 [Example 83, 4-(2,3-Dihydro-benzo[1,4]dioxin-6-yl)-4-[4-(1H-pyrazol-4-yl)-phenyl]-piperidine]
> 7.00 | > 7.00 | Clc1cccc(C2(c3ccc(-c4cn[nH]c4)cc3)CCNCC2)c1 [Example 84, 4-(3-Chloro-phenyl)-4-[4-(1H-pyrazol-4-yl)-phenyl]-piperidine]
> 7.00 | > 7.00 | COc1ccc(C2(c3ccc(-c4c[nH]nc4C)cc3)CCNCC2)cc1 [Example 86, 4-(4-Methoxy-phenyl)-4-[4-(3-methyl-1H-pyrazol-4-yl)-phenyl]piperidine dihydrochloride]
